{"source": "a melting point compilation (Tetko et al.; mined from patent text by program, amines drawn as free bases though some values may be those of a salt)", "data": [{"units": {"melting point": "°C"}, "values": [{"smiles": "CN(C(=O)Nc1ccc(Cl)c(Cl)c1)S(=O)(=O)CCl", "melting point": 119}, {"smiles": "CC(C)(CCCCC=CCCCCC(C)(C)CC(=O)O)CC(=O)O", "melting point": "100 to 101"}, {"smiles": "Cc1c(C)c(N)c2c(c1C)C(c1ccc(C(C)C)cc1)CO2", "note": "(stereo not drawn)", "melting point": "122 to 123"}, {"smiles": "c1ccc(-n2ncc3c2-c2ccccc2C3)cc1", "melting point": "119 to 120"}, {"smiles": "CS(=O)(=O)c1ccc(-c2cnn(CC(=O)c3ccc(C(F)(F)F)cc3)c(=O)c2-c2ccc(F)cc2)cc1", "melting point": "205 to 206"}, {"smiles": "Cc1ccc(-c2cncc(OC3SCC(O)C(O)C3O)c2)cc1", "note": "(stereo not drawn)", "melting point": 228}, {"smiles": "COC(=O)C1=C(C(=O)OC)c2c(sc3ccccc23)CC1", "melting point": 129}, {"smiles": "CC(=O)NCCC1CCc2c(Cl)cc3nn(C)cc3c21", "note": "(stereo not drawn)", "melting point": "143 to 144"}, {"smiles": "CC(O)CC(=O)NCCN", "note": "(stereo not drawn)", "melting point": "71 to 73"}, {"smiles": "O=[N+]([O-])c1nc(NCCO)ccc1NCCO", "melting point": 158}, {"smiles": "CCCN(CCC)C(=O)C(CCC(=O)OC)NC(=O)C(C(=O)OC)=C1SC=CS1", "note": "(stereo not drawn)", "melting point": "115 to 117"}, {"smiles": "Cn1ncc(C(=O)N2CCS(=O)(=O)CC2)c1C(=O)Nc1ccn2nc(-c3ccccc3)nc2c1", "melting point": "> 250"}, {"smiles": "O=C(CCN1CCN(c2cccc3[nH]ccc23)CC1)c1csc2ccc(F)cc12", "melting point": "76 to 78"}, {"smiles": "COc1ccc(CNc2nc(N)n3nc(-c4ccco4)nc3n2)cc1OCc1ccccc1", "melting point": "173 to 175"}, {"smiles": "O=C1NC(=O)c2c1c(-c1ccccc1)cc1c2c2cc(O)ccc2n1CCCCCCBr", "melting point": "214 to 216"}, {"smiles": "N#CC(C(N)=O)c1ccccc1", "note": "(stereo not drawn)", "melting point": "148 to 150"}, {"smiles": "COCC#Cc1cc(OC)c2ncc(C(=O)NCc3ccc(Cl)cc3)c(O)c2c1", "melting point": "211 to 213"}, {"smiles": "O=C(O)/C=C\\C=C(c1ccccc1F)c1ccccc1F", "melting point": "147 to 148"}, {"smiles": "CCCCC(=O)Nc1cccc(C(=O)OC)c1", "melting point": "101 to 102"}, {"smiles": "Cc1ccc(NC(=O)c2cc(Cl)ccc2NCC2CCN(C3CCCCCC3)CC2)nc1", "melting point": "159 to 161"}, {"smiles": "CC1(C)[C@@H](C=C(c2ccccc2)c2ccccc2)[C@@H]1C(=O)O", "note": "(relative stereo)", "melting point": 115}, {"smiles": "CC(C)CC(CP(=O)(O)CNCCc1ccccc1)C(=O)N(c1ccc(-c2ccccc2)cc1)[C@@H](C)C(=O)O", "note": "(stereo partly drawn)", "melting point": "229 to 230"}, {"smiles": "Oc1nc(C2CC2)nc2c1SCCC2", "melting point": "249 to 250"}, {"smiles": "CC1(C)Cc2sccc2C1N=CNC#N", "note": "(stereo not drawn)", "melting point": "118 to 119"}, {"smiles": "O=C(NCc1ccccc1)c1csc(-n2ccc(OCc3ccccc3)cc2=O)c1", "melting point": "162 to 163"}, {"smiles": "O=C(CCn1ccnc1)c1ccc(Cl)cc1Cl", "melting point": "105 to 109"}, {"smiles": "CCCn1nc2c(N)nc3ccccc3c2c1CCNC(=O)c1cccnc1", "melting point": "219 to 221"}, {"smiles": "COc1ccc2c(c1)cc(C(=O)Nc1ccc3c(ccn3C)c1)n2Cc1cccc(C(F)(F)F)c1", "melting point": "176 to 177"}, {"smiles": "COc1cc(CCC2(CCc3ccc(O)c(OC)c3)CC(O)=C(Sc3cc(C)c(OCCO)cc3C(C)(C)C)C(=O)O2)ccc1O", "melting point": "76 to 82"}, {"smiles": "COc1ccc2c(C=O)cccc2c1C(F)(F)F", "melting point": "92 to 94"}, {"smiles": "CN1CCCC1CCNc1nccc(Oc2ccc(NC(=O)c3cc(F)cc(N4CCOCC4)c3)c3ccccc23)n1", "note": "(stereo not drawn)", "melting point": "100 to 101"}, {"smiles": "Cc1coc(Cc2ccc([N+](=O)[O-])cc2)n1", "melting point": "67 to 68"}, {"smiles": "Cc1cn2c(=O)c(C(=O)O)cnc2c2cc([N+](=O)[O-])ccc12", "melting point": "301 to 303"}, {"smiles": "CCOC(=O)CCc1n[nH]c(SCc2ccc(OCc3nc(-c4ccccc4)oc3C)cc2)n1", "melting point": "114 to 115"}, {"smiles": "O=C(O)c1cccc2nc3cc(Br)ccc3nc12", "melting point": "268 to 269"}, {"smiles": "O=C(O)CCC(CC=Cc1ccccc1Cl)(C(=O)C=Cc1ccc(Cl)cc1)c1ccccc1", "note": "(stereo not drawn)", "melting point": "90 to 125"}, {"smiles": "COc1cc([N+](=O)[O-])c2c(c1OC)C(=O)CC2", "melting point": "202 to 204"}, {"smiles": "COC(=O)c1ccc(N(C(=O)c2ccccc2-c2ccccc2)C(=O)c2ccccc2-c2ccccc2)nc1", "melting point": "180 to 188"}, {"smiles": "COc1ccc(C(C)=O)cc1C12CC3CC(CC(C3)C1)C2", "melting point": "138 to 140"}, {"smiles": "Nc1cc(Cl)c(Cl)c(Br)c1[N+](=O)[O-]", "melting point": "132 to 134"}, {"smiles": "CCn1ncc2c1ncc1c(NC)nc3cc(C)nn3c12", "melting point": "254 to 255"}, {"smiles": "CCOC(=O)C1(C(=O)OCC)CCC2(c3cc(OC)c(OC)cc3CCN2C(C)=O)C(C2c3cc(OC)c(OC)cc3CCN2CC)C1", "note": "(stereo not drawn)", "melting point": "142 to 144"}, {"smiles": "Cc1c(Sc2cc(Cl)c(Cl)cc2Cl)cc(C(C)(C)C)c(O)c1C(=O)Nc1ccc([N+](=O)[O-])cc1C(F)(F)F", "melting point": "179 to 180"}, {"smiles": "CCOC(=O)C(Cl)=NNc1ccccc1Br", "melting point": 106}, {"smiles": "CCOC(=O)Cc1cnc(C(C)(C)C)nc1O", "melting point": "98 to 102"}, {"smiles": "CCn1c(=O)c2[nH]c(/C=C/c3ccc(C(F)(F)F)cc3)nc2n(CC)c1=O", "melting point": "> 280"}, {"smiles": "CCNC(=O)Nc1ccc(C(O)(C(F)(F)F)C(F)(F)F)cc1", "melting point": "178 to 179"}, {"smiles": "CCOC(=O)CC[C@H](NC(=O)c1ccc(NCCCc2c(N(C(C)=O)C(C)=O)nc(NC(C)=O)[nH]c2=O)c(OC)c1)C(=O)OCC", "melting point": "73 to 84"}, {"smiles": "O=C(NC(Cc1ccccc1)C(=O)O)OCc1ccc(NC(=O)c2ccccc2)cc1", "note": "(stereo not drawn)", "melting point": "197 to 198"}, {"smiles": "Cc1cc(SC2=C(O)CC(CCc3ccc(N)cc3)(CCc3ccc(N)cc3)OC2=O)c(C(C)(C)C)cc1CO", "melting point": "144 to 146"}, {"smiles": "COc1nc2cc(F)ccc2nc1Cl", "melting point": "93 to 95"}, {"smiles": "CCOC(=O)C[C@H](NC(=O)/C=C/C(=O)c1ccccc1)C(=O)OCC", "melting point": "91 to 93"}, {"smiles": "Cn1c2cc(C(O)CO)ccc2c2c3c(c(-c4ccccc4Cl)cc21)C(=O)NC3=O", "note": "(stereo not drawn)", "melting point": "252 to 255"}, {"smiles": "Nc1ccc(-c2ccc(C(F)(F)F)cc2)cn1", "melting point": 130}, {"smiles": "CC(C(=O)O)c1cccc2c(-c3ccccc3)onc12", "note": "(stereo not drawn)", "melting point": "140 to 144"}, {"smiles": "CC(C)c1cccc(C(C)C)c1NC(=O)NCCN1CCN(CCSc2nc3ccccc3o2)CC1", "melting point": "152 to 153"}, {"smiles": "CC(C)CC(NC(=O)Cc1ccc(NC(=O)Nc2ccccc2Cl)cc1)c1ncc(CCC(=O)O)s1", "note": "(stereo not drawn)", "melting point": "173 to 175"}, {"smiles": "Nc1nc(Nc2ccc(SC3(Cl)C=CC(C(F)(F)F)=CN3)cc2)sc1C(=O)c1ccccc1[N+](=O)[O-]", "note": "(stereo not drawn)", "melting point": "150 to 152"}, {"smiles": "O=c1cc(-c2cccc(Br)c2)sc(N2CCOCC2)c1", "melting point": "181 to 182"}, {"smiles": "CC=NN(C(=O)c1ccccc1)c1ccc(OC)cc1", "melting point": "68 to 70"}, {"smiles": "C=CCn1c(-c2c(Cl)cccc2Cl)nc(-c2ccncc2)c1-c1ccc(C)cc1", "melting point": "147 to 149"}, {"smiles": "COc1cc(C(=O)N2CCN(C(=O)OC(C)(C)C)C(C=O)C2)cc(OC)c1OC", "note": "(stereo not drawn)", "melting point": "160 to 161"}, {"smiles": "COc1ccc2c(Cl)cc(-c3ccc(Cl)cc3)nc2c1", "melting point": "153 to 155"}, {"smiles": "COc1ccc(CN2C(=O)C(C)(c3cc(COCCN4CCOCC4)ccc3Cl)c3cc(Cl)ccc32)c(OC)c1", "note": "(stereo not drawn)", "melting point": 81}, {"smiles": "COC(=O)N1C[C@@H]2CN(c3ccc(N4C[C@H](CNC(C)=O)OC4=O)cc3F)C[C@@H]2C1", "melting point": "128 to 132"}, {"smiles": "Oc1ccc2c(c1)SCCc1c-2n(CCCCCN2CCCC2)c2ccc(O)cc12", "melting point": "202 to 204"}, {"smiles": "Nc1ccc(C(=O)Nc2ccc(-c3ccc(C(=O)N4CCN5CCC4CC5)o3)cc2)cc1", "melting point": 151}, {"smiles": "Cn1cc(S(=O)(=O)NC(C)(C)C)cc1C=O", "melting point": "97 to 98"}, {"smiles": "COc1cc(C(=O)O)cc(Cl)c1Cl", "melting point": "218 to 219"}, {"smiles": "COc1ccc(C(=O)Nc2ccc(-c3ccc(C=O)cc3C)c(C)c2)cc1CCCN(C)C", "melting point": "63 to 66"}, {"smiles": "COc1cc(N)cc([N+](=O)[O-])c1OC", "melting point": "129 to 131"}, {"smiles": "Cc1cn(C(C)(C)C(=O)N(C)C)nc1-c1ccccc1Br", "melting point": "192 to 194"}, {"smiles": "O=C(c1nn(-c2ccc(F)cc2F)c2c1C1CCC2C1)N1CCCc2ccccc21", "note": "(stereo not drawn)", "melting point": "103 to 107"}, {"smiles": "CC(=O)N1C(=O)N(COCc2ccccc2)C(=O)C12c1ccccc1N(CC(C)C)C(=O)N2C", "note": "(stereo not drawn)", "melting point": "70 to 72"}, {"smiles": "COc1ccc(C2C3=C(COC3=O)Nc3ccc4ncsc4c32)cc1O", "note": "(stereo not drawn)", "melting point": "327 to 329"}, {"smiles": "O=C(NNS(=O)(=O)c1ccccc1)c1ccccc1Oc1ccccc1", "melting point": "149 to 150"}, {"smiles": "CC(NC(=O)c1sc2ccc(C(F)(F)F)cc2c1O)C(O)(c1ccccc1)c1ccccc1", "note": "(stereo not drawn)", "melting point": "129 to 130"}, {"smiles": "CC1(C)OC(c2ccc(S(C)(=O)=O)cc2)=C(c2cccnc2)C1=O", "melting point": "164 to 166"}, {"smiles": "Nc1ccc(CCN2CCN(c3ccc(N)cc3)CC2)cc1", "melting point": "156 to 158"}, {"smiles": "CC(C)(C)OC(=O)[C@H]1CCCN1", "melting point": "51.5 to 53.2"}, {"smiles": "O=C1COC(=O)C1=Cc1ccc(C(=O)O)s1", "melting point": "255 to 268"}, {"smiles": "Cc1nc(Cl)c(-c2ccc(F)cc2)n1-c1ccc(Cl)cc1", "melting point": "124 to 126"}, {"smiles": "O=C(O)Cc1cccc(NC(=O)NCC(=O)N2[C@@H](c3cccc(O)c3)CC[C@H]2c2ccccc2)c1", "note": "(racemic)", "melting point": 166}, {"smiles": "COc1nc2cc(Cl)c(Cl)c(-n3c(CO)nnc3-c3cccnc3)c2nc1OC", "melting point": "209 to 210"}, {"smiles": "COc1cc(C(O)CS(C)(=O)=O)cc(OC)c1-n1cccc1", "note": "(stereo not drawn)", "melting point": 192}, {"smiles": "Cc1sccc1C(=O)O", "melting point": "71 to 73"}, {"smiles": "CC(C)(C)OC(=O)NCC(N)C(=O)N1CCCCC1", "note": "(stereo not drawn)", "melting point": "87 to 90"}, {"smiles": "CN1C(=O)c2cccc(C(F)(F)F)c2Sc2ccccc21", "melting point": "139 to 141"}, {"smiles": "COc1ccc(SSc2ccc(OC)cc2C(N)=O)c(C(N)=O)c1", "melting point": "188 to 189"}, {"smiles": "Cc1cc(C(F)(F)F)ccc1NC(=O)c1c(C)cccc1NC(=O)C(C)C", "melting point": "> 230"}, {"smiles": "CCCCOC(=O)c1cc([N+](=O)[O-])c(Oc2ccc(OCc3ccccc3)cc2)c(S(N)(=O)=O)c1", "melting point": "138 to 144"}, {"smiles": "CC(=O)Oc1ccc(C(=NNc2cccc([N+](=O)[O-])c2)c2ccc(OC(C)=O)cc2)cc1", "melting point": "88 to 90"}, {"smiles": "Nc1ccc(NCCc2ccccc2)c(S(=O)(=O)CCO)c1", "melting point": 197}, {"smiles": "CC(C)(C)c1ncn(Sc2ncc([N+](=O)[O-])s2)n1", "melting point": "219 to 221"}, {"smiles": "Cc1c([N+](=O)[O-])ccc2[nH]ccc12", "melting point": "179 to 180"}, {"smiles": "COC(=O)c1sc2ccc(CCl)cc2c1C", "melting point": "115 to 116"}, {"smiles": "Cc1nnc(-c2ccc3ncc(-c4ccc(S(C)=O)cc4)n3c2)o1", "note": "(stereo not drawn)", "melting point": 190}, {"smiles": "Cc1cc(C)c(C2C(=O)NC3(CCN(N(C)C)CC3)C2=O)c(C)c1", "note": "(stereo not drawn)", "melting point": "237 to 241"}]}]}
